# The source made the active and inactive calls.
# Key:
# [1] = molecular target: T1, Tyrosine-protein phosphatase non-receptor type 7 (Homo sapiens, UniProt P35236); assay type: functional
# T1 sequence (P35236 whole entry): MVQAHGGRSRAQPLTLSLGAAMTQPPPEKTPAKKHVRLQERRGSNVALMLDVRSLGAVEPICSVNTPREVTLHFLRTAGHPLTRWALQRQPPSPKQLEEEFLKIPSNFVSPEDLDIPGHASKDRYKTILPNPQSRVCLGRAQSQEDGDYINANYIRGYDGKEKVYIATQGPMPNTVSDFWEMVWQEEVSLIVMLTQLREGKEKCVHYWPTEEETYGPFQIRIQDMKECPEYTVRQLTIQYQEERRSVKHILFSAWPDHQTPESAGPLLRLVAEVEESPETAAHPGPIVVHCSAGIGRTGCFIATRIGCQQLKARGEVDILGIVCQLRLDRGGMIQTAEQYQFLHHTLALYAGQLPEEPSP
# [2] = molecular target: Glyceraldehyde-3-phosphate dehydrogenase (Homo sapiens, UniProt P04406)
# [3] = molecular target: T2, Dual specificity protein phosphatase 6 (Rattus norvegicus, UniProt Q64346)
# T2 sequence (Q64346 whole entry): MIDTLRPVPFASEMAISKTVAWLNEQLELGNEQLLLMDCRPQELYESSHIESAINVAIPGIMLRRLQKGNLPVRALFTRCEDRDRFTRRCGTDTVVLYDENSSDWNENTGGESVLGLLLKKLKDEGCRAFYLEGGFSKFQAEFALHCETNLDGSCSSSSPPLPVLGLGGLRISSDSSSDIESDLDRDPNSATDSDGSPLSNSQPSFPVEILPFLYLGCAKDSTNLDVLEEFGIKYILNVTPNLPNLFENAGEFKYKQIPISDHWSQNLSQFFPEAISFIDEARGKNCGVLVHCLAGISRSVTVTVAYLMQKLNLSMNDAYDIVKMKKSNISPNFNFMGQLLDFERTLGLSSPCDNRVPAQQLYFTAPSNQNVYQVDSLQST
# [4] = molecular target: T2, Dual specificity protein phosphatase 6; assay type: functional
# [5] = molecular target: Lysosomal acid glucosylceramidase (Homo sapiens, UniProt P04062); assay: Dose response cell-based high throughput screening assay to identify enhancers of beta-glucosidase activity. [Related pubchem assays: 784 ]; assay type: functional
# Lysosomal acid glucosylceramidase, sequence (P04062 whole entry): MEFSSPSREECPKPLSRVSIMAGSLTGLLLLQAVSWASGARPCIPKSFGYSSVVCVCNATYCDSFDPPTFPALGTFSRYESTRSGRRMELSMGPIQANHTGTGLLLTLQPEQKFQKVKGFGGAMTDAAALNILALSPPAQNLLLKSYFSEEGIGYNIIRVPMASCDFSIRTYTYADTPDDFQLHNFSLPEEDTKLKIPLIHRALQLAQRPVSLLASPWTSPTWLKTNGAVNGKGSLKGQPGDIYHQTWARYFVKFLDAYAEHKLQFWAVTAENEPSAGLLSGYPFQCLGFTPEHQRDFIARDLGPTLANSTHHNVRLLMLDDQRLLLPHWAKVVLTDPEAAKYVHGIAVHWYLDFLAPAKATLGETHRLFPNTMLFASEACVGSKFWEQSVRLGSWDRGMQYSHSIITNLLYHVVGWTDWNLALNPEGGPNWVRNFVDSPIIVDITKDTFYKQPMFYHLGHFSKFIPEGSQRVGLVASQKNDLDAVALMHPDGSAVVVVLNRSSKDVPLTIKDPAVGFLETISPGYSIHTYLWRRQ
# [6] = molecular target: DNA dC->dU-editing enzyme APOBEC-3G (Homo sapiens, UniProt Q9HC16); assay: Dose Response confirmation of small molecule APOBEC3G DNA Deaminase Inhibitors via a fluorescence-based single-stranded DNA deaminase assay. [Related pubchem assays (depositor defined):AID493012, AID493028]; assay type: functional
# [7] = molecular target: DNA dC->dU-editing enzyme APOBEC-3A (Homo sapiens, UniProt P31941); assay: APOBEC3A DNA deaminase inhibitors, dose response, biochemical (AID 504722); assay type: functional
# [8] = molecular target: G-protein coupled receptor 55 (Homo sapiens, UniProt Q9Y2T6); assay: GPR55 agonists via beta-arrestin recruitment, primary screen, imaging, U2OS cells, beta-arrestin-GFP redistribution (AID 1961); assay type: functional
# G-protein coupled receptor 55, sequence (Q9Y2T6 whole entry): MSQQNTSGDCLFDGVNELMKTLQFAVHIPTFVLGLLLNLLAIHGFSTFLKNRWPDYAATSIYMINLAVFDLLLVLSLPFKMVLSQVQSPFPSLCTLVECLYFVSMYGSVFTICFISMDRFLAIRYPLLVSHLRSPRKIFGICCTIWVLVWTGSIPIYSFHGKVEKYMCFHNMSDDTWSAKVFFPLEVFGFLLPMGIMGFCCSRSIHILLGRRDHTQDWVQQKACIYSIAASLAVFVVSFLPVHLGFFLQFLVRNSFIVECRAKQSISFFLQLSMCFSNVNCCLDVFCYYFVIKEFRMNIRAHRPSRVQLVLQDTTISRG
# [9] = molecular target: Cytochrome P450 2C19 (Homo sapiens, UniProt P33261); assay: qHTS Assay for Inhibitors and Substrates of Cytochrome P450 2C19. [Related pubchem assays: 410 ]; assay type: ADME; settings: read-out: Potency
# [10] = molecular target: Cytochrome P450 2D6 (Homo sapiens, UniProt P10635); assay: qHTS Assay for Inhibitors and Substrates of Cytochrome P450 2D6. [Related pubchem assays: 410 ]; assay type: ADME; settings: read-out: Potency
# Cytochrome P450 2D6, sequence (P10635 whole entry): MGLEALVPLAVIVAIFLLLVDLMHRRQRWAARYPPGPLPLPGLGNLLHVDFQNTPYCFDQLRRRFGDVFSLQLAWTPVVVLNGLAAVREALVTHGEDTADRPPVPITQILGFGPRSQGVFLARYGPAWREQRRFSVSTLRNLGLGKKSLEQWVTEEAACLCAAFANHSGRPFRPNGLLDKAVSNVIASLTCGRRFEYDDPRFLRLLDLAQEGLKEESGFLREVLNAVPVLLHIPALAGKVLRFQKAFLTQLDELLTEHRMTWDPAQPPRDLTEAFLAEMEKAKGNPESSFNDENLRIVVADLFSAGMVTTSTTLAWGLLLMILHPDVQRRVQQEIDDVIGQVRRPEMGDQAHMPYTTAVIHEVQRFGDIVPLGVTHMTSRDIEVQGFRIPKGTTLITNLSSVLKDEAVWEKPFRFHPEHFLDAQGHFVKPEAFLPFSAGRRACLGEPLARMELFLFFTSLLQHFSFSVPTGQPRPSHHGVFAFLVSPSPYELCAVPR
# [11] = cells; assay type: functional, cell-based
# [12] = luciferase reporter signal reduction – luminescence, H4-C neuroglioblastoma cells, dose response (AID 2458); assay type: functional, cell-based;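 note: H4 neuroglioblastoma cells stably carrying a luciferase reporter gene fusion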
# [13] = molecular target: T3, Zinc finger protein mex-5 (Caenorhabditis elegans, UniProt Q9XUB2); assay: MEX-5/TCR-2 RNA interaction inhibitors, dose response, biochemical, C. elegans, fluorescence polarization (AID 1960)
# T3 sequence (Q9XUB2 whole entry): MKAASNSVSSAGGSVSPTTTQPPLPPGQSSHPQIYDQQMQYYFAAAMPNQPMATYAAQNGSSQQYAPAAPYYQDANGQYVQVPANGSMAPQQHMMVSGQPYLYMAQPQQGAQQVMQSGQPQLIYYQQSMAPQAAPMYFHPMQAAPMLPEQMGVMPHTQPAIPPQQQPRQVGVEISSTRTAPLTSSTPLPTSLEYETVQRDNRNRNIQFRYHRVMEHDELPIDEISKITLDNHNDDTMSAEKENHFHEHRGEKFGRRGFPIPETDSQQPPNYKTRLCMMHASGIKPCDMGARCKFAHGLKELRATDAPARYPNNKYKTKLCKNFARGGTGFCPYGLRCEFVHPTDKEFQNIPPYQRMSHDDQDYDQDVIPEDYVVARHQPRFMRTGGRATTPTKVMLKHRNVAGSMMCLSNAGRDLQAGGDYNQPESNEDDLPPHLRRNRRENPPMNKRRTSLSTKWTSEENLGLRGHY
# [14] = molecular target: T4, RNA-binding protein pos-1 (Caenorhabditis elegans, UniProt G5EF15); assay: inhibitors of POS-1/mex-3 RNA binding, dose response, biochemical, fluorescence polarization (AID 1964);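 note: purified POS-1 fused to maltose binding protein made in E. coli; potency of compounds blocking POS-1 binding to fluorescent RNA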
# T4 sequence (G5EF15 whole entry): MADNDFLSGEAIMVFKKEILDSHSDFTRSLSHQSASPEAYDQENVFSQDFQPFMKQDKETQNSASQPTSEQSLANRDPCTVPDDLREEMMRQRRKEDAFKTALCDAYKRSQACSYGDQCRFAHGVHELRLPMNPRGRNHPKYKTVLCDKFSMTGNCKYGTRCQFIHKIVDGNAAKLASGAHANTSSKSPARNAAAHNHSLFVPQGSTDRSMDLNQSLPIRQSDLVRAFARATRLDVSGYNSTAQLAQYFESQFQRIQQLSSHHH
# [15] = inhibitors of SNCA 5'UTR-driven reporter translation, confirmation, H4 neuroglioma cells, luminescence (AID 1988); assay type: functional, cell-based
# [16] = inhibitors of SNCA 5'UTR-driven translation, confirmation, luminescence, H4 neuroglioblastoma cells, dose confirmation (AID 2454); assay type: functional, cell-based;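 note: H4 neuroglioblastoma cells carrying an alpha-synuclein 5'UTR luciferase reporter; potency for inhibition of the luciferase signal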
# [17] = molecular target: T5, Heat shock factor protein 1 (Mus musculus, UniProt P38532); assay: inhibition of MG132-induced HSE-luciferase signal, confirmation, cell-based, NIH3T3, luminescence, dose retest (AID 2382); assay type: functional;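 note: NIH3T3 fibroblasts with HSF1-driven luciferase reporter stressed by proteasome inhibitor MG132; luminescence from HSF1-driven luciferase expression after 8 hours of MG132 stress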
# T5 sequence (P38532 whole entry): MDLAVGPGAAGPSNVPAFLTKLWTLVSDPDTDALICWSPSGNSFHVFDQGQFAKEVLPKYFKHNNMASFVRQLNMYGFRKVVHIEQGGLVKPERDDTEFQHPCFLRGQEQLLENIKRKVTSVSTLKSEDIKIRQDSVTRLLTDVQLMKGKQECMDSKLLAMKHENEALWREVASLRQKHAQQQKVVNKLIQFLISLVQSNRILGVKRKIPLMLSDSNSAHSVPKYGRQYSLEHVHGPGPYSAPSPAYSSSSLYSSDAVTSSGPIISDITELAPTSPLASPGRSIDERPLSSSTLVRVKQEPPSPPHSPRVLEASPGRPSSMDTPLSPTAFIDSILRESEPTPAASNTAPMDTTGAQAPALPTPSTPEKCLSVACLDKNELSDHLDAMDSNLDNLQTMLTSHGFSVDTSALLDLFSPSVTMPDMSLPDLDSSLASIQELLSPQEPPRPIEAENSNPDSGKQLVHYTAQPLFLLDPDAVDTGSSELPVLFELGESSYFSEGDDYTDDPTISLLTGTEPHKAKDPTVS
# [18] = molecular target: Female germline-specific tumor suppressor gld-1 (Caenorhabditis elegans, UniProt Q17339); assay: inhibitors of GLD-1 binding to TGE RNA, dose response, biochemical, fluorescence polarization, C. elegans (AID 2802);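 note: fluorescence polarization of labeled TGE RNA bound by purified gld-1 protein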
# Female germline-specific tumor suppressor gld-1, sequence (Q17339 whole entry): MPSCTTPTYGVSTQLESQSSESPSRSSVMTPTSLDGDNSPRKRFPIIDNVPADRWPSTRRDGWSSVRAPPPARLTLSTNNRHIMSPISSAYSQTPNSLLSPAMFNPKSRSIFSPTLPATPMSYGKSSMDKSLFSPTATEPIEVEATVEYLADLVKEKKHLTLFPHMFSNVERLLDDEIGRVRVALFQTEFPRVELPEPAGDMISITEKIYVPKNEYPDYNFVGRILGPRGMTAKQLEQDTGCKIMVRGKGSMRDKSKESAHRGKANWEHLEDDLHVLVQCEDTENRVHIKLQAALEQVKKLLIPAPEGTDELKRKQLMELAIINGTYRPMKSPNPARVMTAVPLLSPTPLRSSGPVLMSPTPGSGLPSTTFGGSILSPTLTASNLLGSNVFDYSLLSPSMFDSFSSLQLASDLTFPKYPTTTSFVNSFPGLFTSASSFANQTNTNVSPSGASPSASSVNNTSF
# [19] = molecular target: T6, Polyadenylate-binding protein 1 (Homo sapiens, UniProt P11940); assay: PABP1 MLLE–PAM2 binding inhibitor potency, dose response, biochemical, fluorescence polarization, FITC-PAM2 peptide (AID 602259); assay type: functional; settings: read-out: IC50_Mean
# T6 sequence (P11940 whole entry): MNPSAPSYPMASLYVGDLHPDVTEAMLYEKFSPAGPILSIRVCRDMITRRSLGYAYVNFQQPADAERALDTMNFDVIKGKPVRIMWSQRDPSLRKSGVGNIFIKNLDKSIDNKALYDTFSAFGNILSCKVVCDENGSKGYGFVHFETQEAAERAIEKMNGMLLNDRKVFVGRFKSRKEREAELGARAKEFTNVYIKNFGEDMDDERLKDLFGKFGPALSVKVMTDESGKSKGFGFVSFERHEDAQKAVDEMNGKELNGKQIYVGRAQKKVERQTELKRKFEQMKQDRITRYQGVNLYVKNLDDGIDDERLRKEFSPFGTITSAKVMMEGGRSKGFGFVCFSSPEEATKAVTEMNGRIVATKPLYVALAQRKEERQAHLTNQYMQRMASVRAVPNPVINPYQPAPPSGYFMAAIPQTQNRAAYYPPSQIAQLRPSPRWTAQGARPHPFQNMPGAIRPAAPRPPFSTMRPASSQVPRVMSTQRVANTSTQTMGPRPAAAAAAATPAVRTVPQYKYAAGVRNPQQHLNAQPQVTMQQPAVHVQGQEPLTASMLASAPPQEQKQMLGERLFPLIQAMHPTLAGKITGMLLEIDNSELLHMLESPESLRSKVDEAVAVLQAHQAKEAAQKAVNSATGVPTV
# [20] = molecular target: T6, Polyadenylate-binding protein 1; assay: PABP1 MLLE–PAM2 interaction inhibitors, dose response, miRNA deadenylation inhibitor project, biochemical, fluorescence polarization, Cy5-PAM2 peptide, secondary (AID 602260); assay type: functional; settings: read-out: IC50_Mean
# [21] = molecular target: Protein Rev (Human immunodeficiency virus type 1 group M subtype B (isolate HXB2)(HIV-1), UniProt P04618); assay: inhibitors of Rev binding to RRE RNA, dose response, biochemical, fluorescence polarization, HIV-1 (AID 434976); parameters: species or system Human immunodeficiency virus 1
# Protein Rev, sequence (P04618 whole entry): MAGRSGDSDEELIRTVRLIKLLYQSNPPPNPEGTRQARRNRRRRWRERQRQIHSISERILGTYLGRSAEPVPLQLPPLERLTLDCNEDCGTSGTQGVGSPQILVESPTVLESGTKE
# [22] = molecular target: Voltage-dependent T-type calcium channel subunit alpha-1H (Homo sapiens, UniProt O95180); assay type: functional;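 note: channel activity triggered by adding a high calcium stimulation buffer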
# Voltage-dependent T-type calcium channel subunit alpha-1H, sequence (O95180 whole entry): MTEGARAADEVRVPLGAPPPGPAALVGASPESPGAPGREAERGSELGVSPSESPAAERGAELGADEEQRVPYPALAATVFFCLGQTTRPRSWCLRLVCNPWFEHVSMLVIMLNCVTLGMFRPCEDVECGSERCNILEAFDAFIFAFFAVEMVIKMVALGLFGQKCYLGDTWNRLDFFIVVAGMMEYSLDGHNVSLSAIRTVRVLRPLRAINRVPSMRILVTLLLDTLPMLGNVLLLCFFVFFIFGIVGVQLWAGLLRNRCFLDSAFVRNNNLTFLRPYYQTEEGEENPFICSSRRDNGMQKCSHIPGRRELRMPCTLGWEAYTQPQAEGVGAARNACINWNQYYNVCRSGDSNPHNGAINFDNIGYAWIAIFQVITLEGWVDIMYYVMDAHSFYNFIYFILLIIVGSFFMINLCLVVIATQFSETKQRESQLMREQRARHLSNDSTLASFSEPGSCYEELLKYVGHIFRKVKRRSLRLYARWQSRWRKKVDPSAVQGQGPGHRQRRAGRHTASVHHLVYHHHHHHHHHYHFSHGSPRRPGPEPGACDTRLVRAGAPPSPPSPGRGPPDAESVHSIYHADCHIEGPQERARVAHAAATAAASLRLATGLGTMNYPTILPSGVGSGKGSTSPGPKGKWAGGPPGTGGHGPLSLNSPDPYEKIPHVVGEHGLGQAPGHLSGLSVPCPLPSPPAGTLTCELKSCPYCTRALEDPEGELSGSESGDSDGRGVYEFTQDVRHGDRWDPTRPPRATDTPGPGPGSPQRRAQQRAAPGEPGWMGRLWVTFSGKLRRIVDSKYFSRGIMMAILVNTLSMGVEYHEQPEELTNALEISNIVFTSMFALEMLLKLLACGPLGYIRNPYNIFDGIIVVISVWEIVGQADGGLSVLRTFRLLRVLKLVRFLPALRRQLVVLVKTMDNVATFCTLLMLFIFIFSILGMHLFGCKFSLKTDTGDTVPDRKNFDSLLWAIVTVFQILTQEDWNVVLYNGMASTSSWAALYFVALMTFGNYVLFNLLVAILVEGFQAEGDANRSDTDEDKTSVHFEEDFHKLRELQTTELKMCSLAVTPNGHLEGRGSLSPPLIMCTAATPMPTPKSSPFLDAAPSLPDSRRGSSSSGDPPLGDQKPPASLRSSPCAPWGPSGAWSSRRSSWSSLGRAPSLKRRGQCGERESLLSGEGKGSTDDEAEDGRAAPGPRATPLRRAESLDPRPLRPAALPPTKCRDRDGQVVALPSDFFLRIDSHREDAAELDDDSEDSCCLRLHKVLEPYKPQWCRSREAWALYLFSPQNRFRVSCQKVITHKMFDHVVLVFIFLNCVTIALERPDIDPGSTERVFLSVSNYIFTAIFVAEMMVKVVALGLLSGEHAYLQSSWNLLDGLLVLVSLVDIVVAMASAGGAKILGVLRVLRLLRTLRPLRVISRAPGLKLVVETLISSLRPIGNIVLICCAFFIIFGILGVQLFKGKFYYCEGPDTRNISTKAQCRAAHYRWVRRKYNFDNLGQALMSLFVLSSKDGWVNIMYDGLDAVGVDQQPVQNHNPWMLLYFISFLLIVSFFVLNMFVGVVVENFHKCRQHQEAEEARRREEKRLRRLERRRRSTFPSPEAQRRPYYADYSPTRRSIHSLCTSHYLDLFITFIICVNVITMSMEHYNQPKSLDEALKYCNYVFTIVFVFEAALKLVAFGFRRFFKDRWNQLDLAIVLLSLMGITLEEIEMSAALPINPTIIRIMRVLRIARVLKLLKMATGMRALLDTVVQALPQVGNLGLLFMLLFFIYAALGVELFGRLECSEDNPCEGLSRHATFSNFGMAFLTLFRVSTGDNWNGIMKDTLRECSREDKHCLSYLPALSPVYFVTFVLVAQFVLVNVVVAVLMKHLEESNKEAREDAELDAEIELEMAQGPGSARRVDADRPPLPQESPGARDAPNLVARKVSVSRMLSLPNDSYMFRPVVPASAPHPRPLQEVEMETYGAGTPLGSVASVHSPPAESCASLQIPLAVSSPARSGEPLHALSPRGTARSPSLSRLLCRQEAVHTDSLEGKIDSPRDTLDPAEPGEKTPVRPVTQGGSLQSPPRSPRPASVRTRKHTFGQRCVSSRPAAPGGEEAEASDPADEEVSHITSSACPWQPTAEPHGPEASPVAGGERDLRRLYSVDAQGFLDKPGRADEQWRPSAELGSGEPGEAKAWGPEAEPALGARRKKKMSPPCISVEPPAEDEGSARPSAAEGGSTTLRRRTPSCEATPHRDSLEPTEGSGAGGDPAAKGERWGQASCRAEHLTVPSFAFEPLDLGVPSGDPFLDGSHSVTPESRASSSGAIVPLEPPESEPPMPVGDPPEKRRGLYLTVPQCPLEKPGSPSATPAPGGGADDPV
# [23] = A cytotoxicity screen of small molecule inhibitors of the PhoP region in Salmonella typhi identified in the primary screen. [Related pubchem assays: 1850, 1864, 1985 ]; assay type: functional
# [24] = test system: INS1; assay: beta cell apoptosis inhibitors, cytokine rescue, dose response, luminescence, retest (AID 449756); assay type: functional, cell-based; settings: Rattus norvegicus;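 note: cell death triggered by IL-1 beta plus TNF-alpha plus IFN-gamma mixture; protective hits raise ATP signal compared with cytokine alone wells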
# [25] = molecular target: Serine/threonine-protein phosphatase (Homo sapiens, UniProt Q9BPW0); assay: Counterscreen for inhibitors of PP1: fluorescence-based biochemical high throughput dose response assay to identify inhibitors of Protein Phosphatase 5 (PP5). [Related pubchem assays: 2034 (Summary (PP5 inhibitors)), 1987 (PP5 inhibitors in singlate), 2235 (PP1 inhibitors in singlate)]
# [26] = test system: Streptococcus sp. 'group A'; assay: growth inhibition of control SK(-) GAS strain, dose response, counter-screen for streptokinase expression inhibitor project, luminescence, kanamycin, BacTiterGlo, confirmation (AID 1900); assay type: functional, organism-based
# [27] = molecular target: Serine/threonine-protein phosphatase PP1-alpha catalytic subunit (Homo sapiens, UniProt P62136); assay: PP1 phosphatase inhibitors, dose response, biochemical, fluorescence (AID 2403);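 note: phosphatase turnover of OMFP into fluorescent 3-O-methylfluorescein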
# [28] = cytotoxicity toward NIH3T3 fibroblasts, dose response, counter-screen, cell-based, ATP luminescence, mouse fibroblasts (AID 2010); assay type: functional;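 note: cells exposed to compound for about 90 hours before reading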
# [29] = test system: Streptococcus; assay: Group A Streptococcus viability loss, dose response, counter-screen for streptokinase expression inhibitor project, luminescence, BacTiterGlo (AID 1915); assay type: functional, organism-based;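 note: potency for reduction of bacterial viability or growth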
# [30] = inhibitors of intracellular T. cruzi replication, confirmation, NIH3T3 host cells, beta-gal luminescence (AID 2044); assay type: functional, cell-based;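 note: intracellular parasites grown in NIH/3T3 mouse fibroblasts as host cells; luminescent beta-galactosidase reporter signal from transgenic T. cruzi replicating inside host cells; inhibitors lower the luminescence signal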
# [31] = molecular target: T7, Streptokinase A (Streptococcus pyogenes serotype M1, UniProt P10520); assay: S. pyogenes streptokinase expression inhibitors, potency, dose response, plasminogen activation absorbance, OD405 (AID 1914); assay type: functional, Streptococcus pyogenes M1 GAS;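 note: secreted streptokinase activity via plasminogen activation per viability signal from cell pellet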
# T7 sequence (P10520 whole entry): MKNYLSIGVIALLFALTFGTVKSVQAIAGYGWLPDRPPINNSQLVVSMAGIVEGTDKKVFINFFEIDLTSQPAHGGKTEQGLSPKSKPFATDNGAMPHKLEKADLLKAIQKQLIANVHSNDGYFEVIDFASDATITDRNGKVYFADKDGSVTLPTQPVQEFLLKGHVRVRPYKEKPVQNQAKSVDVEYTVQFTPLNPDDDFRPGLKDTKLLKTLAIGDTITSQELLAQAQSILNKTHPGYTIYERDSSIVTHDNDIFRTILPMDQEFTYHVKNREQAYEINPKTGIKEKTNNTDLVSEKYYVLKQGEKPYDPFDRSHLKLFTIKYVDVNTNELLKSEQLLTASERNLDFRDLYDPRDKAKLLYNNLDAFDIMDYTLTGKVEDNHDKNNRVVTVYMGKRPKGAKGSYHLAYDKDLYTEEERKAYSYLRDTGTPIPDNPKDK
# [32] = test system: H9c2; assay: cells; assay type: functional, cell-based; settings: Rattus norvegicus, H9c2, Myocardium;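 note: confirmatory concentration-response retest of ultra-high-throughput screening hits for modulation of myocardial damage; cell death induced by hydrogen peroxide oxidative stress; compound pretreatment for 60 min then peroxide exposure for 2 h; potency is for protecting the cells against peroxide damage rather than for killing them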
compound,measurement,setting,value
CCCn1c(=O)nc(NCc2ccc(C)cc2)[nH]c1=O,IC50,[1],> 100 µM (not active)
same,IC50,[2],> 100 µM (not active)
same,IC50,[3],> 100 µM (inactive)
same,IC50,[4],> 100 µM (inactive)
C=CCNC(=O)CCCOc1cc(C)ccc1C,EC50,[5],> 50 µM (not active)
Cc1ccsc1/C=N/n1c(S)nnc1-c1ccco1,IC50,[6],1.79 µM (active)
same,IC50,[7],> 100 µM (inactive)
COc1cc(C(CC(=O)N2CCCC2)c2c(OC)cc(OC)c3c(-c4ccccc4)cc(=O)oc23)cc(OC)c1OC (configuration not stated),EC50,[8],6.57 µM (active)
C=CCCC/C=C(/C)C(OCc1ccc(OC)cc1)C(CC/C=C(\C)C(N)=O)OC (configuration not stated),AC50,[9],2.51 µM (inconclusive)
same,AC50,[10],3.16 µM (inconclusive)
C/C(=N\O)c1ccc2c3ccccc3n(C)c2c1,EC50,[5],> 50 µM (not active)
CC[C@@]12CCCN3CC[C@@]4(c5ccc(OC)c(O)c5N(C(C)=O)[C@H]4CC1)[C@H]32,AC50,[10],20 µM (inconclusive)
Cc1cc(/C=c2/sc3nc4ccccc4n3c2=O)c(C)n1-c1ccccn1,EC50,[11],76 nM (active)
same,EC50,[12],84 nM (active)
same,EC50,[13],> 300 µM (not active)
same,EC50,[14],> 300 µM (not active)
same,EC50,[15],< 100 nM (active)
same,EC50,[16],92 nM (active)
same,EC50,[17],< 160 nM (active)
O=c1[nH]c2cc3ccccc3cc2nc1C(F)(F)F,IC50,[18],2.9 µM (active)
same,IC50,[19],46.2 µM (inactive)
same,IC50,[20],> 66 µM (inactive)
same,IC50,[21],> 75.5 µM (not active)
CCOC(=O)C1Nc2c(OC)cccc2C2OCCC12 (configuration not stated),IC50,[1],> 100 µM (not active)
same,IC50,[2],> 100 µM (not active)
same,IC50,[3],> 100 µM (inactive)
same,IC50,[4],> 100 µM (inactive)
CCN(C1CCCCC1)S(=O)(=O)c1ccc(OC)c(C)c1,EC50,[22],3.88 µM (active)
same,EC50,[23],> 50 µM (active)
COC(=O)c1cc2c(C)cc3ccc(C)cn3c-2c1C(=O)OC,IC50,[18],> 2.21 µM (active)
same,IC50,[21],12.2 µM (not active)
CCOC(=O)c1cnc(-n2nc(C)cc2C)nc1NCc1ccccc1,AC50,[24],5.4 µM (active)
same,IC50,[25],> 67 µM (not active)
same,EC50,[26],8.49 µM (active)
same,IC50,[27],5.83 µM (active)
same,EC50,[28],> 60 µM (not active)
same,EC50,[29],9.69 µM (active)
same,EC50,[30],2.09 µM (active)
same,EC50,[31],> 150 µM (not active)
CCC(=O)N1CCN(c2ccccc2NC(=O)COc2cc(C)ccc2C(C)C)CC1,EC50,[22],2.97 µM (active)
same,IC50,[32],> 79 µM (inactive)
CCc1ccc(Nc2n[n+](-c3ccccc3)c(-c3cc(OC)c(OC)cc3Br)s2)cc1,EC50,[8],21.2 µM (inactive)
